From publication doi:10.1101/2021.05.03.442520v1 (biorxiv, 2021)

Target: TMPRSS2 (Homo sapiens, UniProt O15393)
Assay: fluorogenic pericellular protease assay, transfected Vero E6 cells
Format: cell-based
Settings: Vero C1008, read-out: % inhibition at 10 nM

TMPRSS2, sequence (O15393 whole entry): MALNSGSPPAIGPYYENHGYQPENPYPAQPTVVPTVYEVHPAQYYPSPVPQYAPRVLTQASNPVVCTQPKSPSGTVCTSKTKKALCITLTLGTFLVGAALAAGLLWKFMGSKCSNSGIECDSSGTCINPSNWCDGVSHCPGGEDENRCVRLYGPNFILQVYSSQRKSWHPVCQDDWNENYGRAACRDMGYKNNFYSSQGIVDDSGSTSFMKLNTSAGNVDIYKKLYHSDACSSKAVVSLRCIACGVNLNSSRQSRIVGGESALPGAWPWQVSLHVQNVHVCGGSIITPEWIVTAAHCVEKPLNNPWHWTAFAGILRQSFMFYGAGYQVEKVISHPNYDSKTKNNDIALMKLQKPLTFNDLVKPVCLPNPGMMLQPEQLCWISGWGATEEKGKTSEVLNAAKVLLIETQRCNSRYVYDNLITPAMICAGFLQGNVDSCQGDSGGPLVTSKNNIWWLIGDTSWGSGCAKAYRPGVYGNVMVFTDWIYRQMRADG

N=C(N)NCCCCC(=O)N[C@@H](CCC(N)=O)C(=O)N[C@@H](CC1CCCCC1)C(=O)N[C@@H](CCCNC(=N)N)C(=O)c1nc2ccccc2s1 [N-0678]
inhibition at 0.01 µM: 5%

N=C(N)NCCC[C@H](NC(=O)[C@H](Cc1ccccc1)NC(=O)[C@H](CCC(N)=O)NC(=N)N)C(=O)c1nc2ccccc2s1 [N-1296]
inhibition at 0.01 µM: 16%
